Experimental data from patent US20230203040A1, “CRYSTALLINE FORMS OF A SULFONAMIDE COMPOUND AND PROCESSES FOR PREPARING THE SAME” (CRYSTAL PHARMATECH CO., LTD., priority 2020, published 2023).
Converted amounts (≈) assume the structure as drawn.

Tests used:
Format in all cases: physicochemical
[1] = Compressibility of crystalline forms (manual tableting, hardness and tensile strength); settings: for hardness (radial crushing force) / Tensile strength: tablet pressed at 10 KN; for hardness (radial crushing force): 24 hours in dryer; for Tensile strength: T=2H/πDL
Description: A manual tableting machine was used to perform the tableting. […] 10 KN pressure was applied to suppress into cylindrical tablets, which were placed in a dryer for 24 hours. After the complete elastic restoration, the tablets were tested with a tablet hardness meter for its radial crushing force (hardness, H). Diameter (D) and thickness (L) of the tablets were measured with a Vernier caliper, and the tensile strength of the powder under different hardness was calculated using the formula T=2H/πDL. Under a certain pressure, the higher the tensile strength was, the better the compressibility was.

[2] = Hygroscopicity by dynamic vapor sorption (DVS); settings: 25° C.; for Weight gain at 80% RH: 80% relative humidity; for Weight gain at 95% RH: 95% relative humidity
Description: The dynamic vapor sorption diagrams of the present invention were collected on Intrinsic-type and Intrinsic Plus-type dynamic vapor sorption instruments of SMS company. The process parameters of the dynamic vapor sorption test of the present invention were as follows: Temperature: 25° C. Protection gas and its flow rate: N2, 200 mL/minute dm/dt: 0.002%/minute Minimum dm/dt equilibration time: 10 minutes Maximum Equilibration Time: 180 minutes Relative humidity range: 0% RH-95% RH-0% RH Relative humidity gradient: 10% (0% RH-90% RH-0% RH), 5% (90% RH-95% RH and 95% RH-90% RH). Each about 10 mg of Crystalline Form of the present invention and Crystalline Form A of WO2020/008391A was weighed for dynamic vapor sorption (DVS) test, and then sampled to measure XRPD. The experimental results were shown in Table 21, and the dynamic vapor sorption diagrams of Crystalline Forms A and E were shown in FIGS. 22-23 respectively.

[3] = Solubility of crystalline forms in FaSSIF, FeSSIF and pure water (saturated solutions, HPLC); settings: 37° C.; for Solubility in water: pure water
Description: The sample contents in saturated solutions were determined by high performance liquid chromatography (HPLC).

[4] = Intrinsic dissolution rate; settings: pH 6.8 Phosphate Buffer, 37° C., paddle 100 rpm, sheet 0.5 cm^2
Description: The intrinsic dissolution rate data of the present invention were collected on an Agilent 708DS-type dissolution apparatus of the Agilent company. The intrinsic dissolution test conditions were as follows.
An intact pressed sheet was transferred to the dissolution apparatus for testing the intrinsic dissolution rate, and the slope was calculated according to the measurement points between 10 and 30 minutes, expressed in mg/mL, and the intrinsic dissolution rate (IDR) was further calculated according to the slope, expressed in mg/min/cm^2. The dissolution rate of Crystalline Form E of the present invention was faster than that of Crystalline Form A of the prior art.

hardness (radial crushing force) [1] [N]	Tensile strength [1] [MPa]	Weight gain at 80% RH [2] [%]	Weight gain at 95% RH [2] [%]	Solubility in FaSSIF ([3]; equilibrated 1 hour) [mg/mL]	Solubility in FaSSIF ([3]; equilibrated 2 hours) [mg/mL]	Solubility in FaSSIF ([3]; equilibrated 4 hours) [mg/mL]	Solubility in FeSSIF ([3]; equilibrated 1 hour) [mg/mL]	Solubility in FeSSIF ([3]; equilibrated 2 hours) [mg/mL]	Solubility in FeSSIF ([3]; equilibrated 4 hours) [mg/mL]	Solubility in water ([3]; equilibrated 1 hour) [mg/mL]	Solubility in water ([3]; equilibrated 2 hours) [mg/mL]	Solubility in water ([3]; equilibrated 4 hours) [mg/mL]	dissolution rate (intrinsic) compared with Crystalline Form A [4]	solubility in FaSSIF, FeSSIF and pure water compared with Crystalline Form A [3]	SMILES	tensile strength and compressibility compared with Crystalline Form A ([1]; 10 KN)
17.01	1.805	0.09	0.27	0.0723 (≈ 224 µM)	0.0780 (≈ 241 µM)	0.0761 (≈ 235 µM)	0.0094 (≈ 29.1 µM)	0.0094 (≈ 29.1 µM)	0.0096 (≈ 29.7 µM)	0.0643 (≈ 199 µM)	0.0747 (≈ 231 µM)	0.0723 (≈ 224 µM)	–	–	CCCS(=O)(=O)N[C@H]1C[C@@H](N(C)c2ncnc3[nH]ccc23)C1 [Crystalline Form A, reference compound]	–
17.20	2.607	0.11	0.19	0.1538 (≈ 476 µM)	0.1645 (≈ 509 µM)	0.1694 (≈ 524 µM)	0.0384 (≈ 119 µM)	0.0392 (≈ 121 µM)	0.0441 (≈ 136 µM)	0.1147 (≈ 355 µM)	0.1386 (≈ 429 µM)	0.1562 (≈ 483 µM)	faster	higher	CCCS(=O)(=O)N[C@H]1C[C@@H](N(C)c2ncnc3[nH]ccc23)C1 [Crystalline Form E]	higher tensile strength and better compressibility
–	–	–	–	0.1890 (≈ 584 µM)	0.2035 (≈ 629 µM)	0.2142 (≈ 662 µM)	0.0516 (≈ 160 µM)	0.0549 (≈ 170 µM)	0.0592 (≈ 183 µM)	0.1796 (≈ 555 µM)	0.1892 (≈ 585 µM)	0.2030 (≈ 628 µM)	–	–	CCCS(=O)(=O)N[C@H]1C[C@@H](N(C)c2ncnc3[nH]ccc23)C1 [Crystalline Form F]	–
